Measured values published in PubChem BioAssay (NCI).
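All cell lines were grown in 96-well plates and treated with compound for 48 hours. TGI is the concentration that stops growth completely.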

Legend:
Test in all cases: NCI tumour cell line growth inhibition, 48 h
MCF7 breast = test system: MCF7 breast
NCI-H460 lung = test system: NCI-H460 lung
HCC-2998 colon = test system: HCC-2998 colon
COLO 205 colon = test system: COLO 205 colon
MDA-MB-231 breast = test system: MDA-MB-231 breast
786-0 renal = test system: 786-0 renal
T-47D breast = test system: T-47D breast
NCI-H226 lung = test system: NCI-H226 lung
RXF 393 renal = test system: RXF 393 renal
HS 578T breast = test system: HS 578T breast
OVCAR-8 ovarian = test system: OVCAR-8 ovarian
SF-539 CNS = test system: SF-539 CNS
PC-3 prostate = test system: PC-3 prostate
U251 CNS = test system: U251 CNS
CAKI-1 renal = test system: CAKI-1 renal
BT-549 breast = test system: BT-549 breast
OVCAR-3 ovarian = test system: OVCAR-3 ovarian
SK-MEL-5 melanoma = test system: SK-MEL-5 melanoma
KM12 colon = test system: KM12 colon
SK-OV-3 ovarian = test system: SK-OV-3 ovarian
SF-295 CNS = test system: SF-295 CNS
HOP-92 NSCLC = test system: HOP-92 NSCLC
ACHN renal = test system: ACHN renal
LOX IMVI melanoma = test system: LOX IMVI melanoma
A498 renal = test system: A498 renal
MDA-N = test system: MDA-N
NCI-H522 lung = test system: NCI-H522 lung
SN12C renal = test system: SN12C renal
HT29 colon = test system: HT29 colon
K-562 leukemia = test system: K-562 leukemia
MALME-3M melanoma = test system: MALME-3M melanoma
RPMI-8226 leukemia = test system: RPMI-8226 leukemia
SR leukemia = test system: SR leukemia
OVCAR-4 ovarian = test system: OVCAR-4 ovarian
M14 melanoma = test system: M14 melanoma
SW-620 colon = test system: SW-620 colon
MDA-MB-435 = test system: MDA-MB-435
NCI/ADR-RES ovarian = test system: NCI/ADR-RES ovarian
OVCAR-5 ovarian = test system: OVCAR-5 ovarian
CCRF-CEM leukemia = test system: CCRF-CEM leukemia
MOLT-4 leukemia = test system: MOLT-4 leukemia
HCT-116 colon = test system: HCT-116 colon
SF-268 CNS = test system: SF-268 CNS
NCI-H23 lung = test system: NCI-H23 lung
SK-MEL-2 melanoma = test system: SK-MEL-2 melanoma
DU-145 prostate = test system: DU-145 prostate
UACC-257 melanoma = test system: UACC-257 melanoma
IGROV1 ovarian = test system: IGROV1 ovarian
UACC-62 melanoma = test system: UACC-62 melanoma
UO-31 renal = test system: UO-31 renal
A549 NSCLC = test system: A549 NSCLC
SNB-75 CNS = test system: SNB-75 CNS
HCT-15 colon = test system: HCT-15 colon
SNB-19 CNS = test system: SNB-19 CNS
HOP-62 NSCLC = test system: HOP-62 NSCLC
TK-10 renal = test system: TK-10 renal
HL-60(TB) leukemia = test system: HL-60(TB) leukemia
EKVX NSCLC = test system: EKVX NSCLC
SK-MEL-28 melanoma = test system: SK-MEL-28 melanoma

Measured: TGI

Oc1ccc(Nc2nc(Cl)c3[nH]cnc3n2)cc1
38.2 µM: HOP-92 NSCLC
87.3 µM: SK-MEL-2 melanoma
not listed: SK-MEL-28 melanoma
> 100 µM: all other assays above

C#CCn1c(I)cc2c(c1=O)COC(=O)[C@]2(O)CC
> 100 µM: all assays above

COC(=O)[C@@H]1C=CCN1S(=O)(=O)c1ccc(C)cc1
53.5 µM: HL-60(TB) leukemia
72.1 µM: CCRF-CEM leukemia
58.8 µM: SR leukemia
39.2 µM: MDA-MB-435
57.8 µM: CAKI-1 renal
> 100 µM: all other assays above
